From ChEMBL document CHEMBL3739378, “Nocarimidazoles A and B from a Marine-Derived Actinomycete of the Genus Nocardiopsis” (2015)
Converted amounts (≈) assume the structure as drawn. The source made the active and inactive calls. No cut-off for these calls is given here.

Legend:
[1] = molecular target: Acetylcholinesterase (Homo sapiens) (UniProt P22303); assay: Inhibition of AChE (unknown origin) at 100 ug/ml for 15 mins by spectrophotometry
A498 = assay: Cytotoxicity against human A498 cells; assay type: functional, cell-based
ACHN = assay: Cytotoxicity against human ACHN cells; assay type: functional, cell-based
Bacillus subtilis = assay: Antibacterial activity against Bacillus subtilis ATCC 6633 after 24 hrs; assay type: functional; conditions: ATCC 6633, 24 h
[2] = test system: Staphylococcus epidermidis; assay: Antibacterial activity against Staphylococcus epidermidis ATCC 12228 after 24 hrs; assay type: functional; conditions: ATCC 12228, 24 h

Acetylcholinesterase (Homo sapiens), sequence (P22303 whole entry): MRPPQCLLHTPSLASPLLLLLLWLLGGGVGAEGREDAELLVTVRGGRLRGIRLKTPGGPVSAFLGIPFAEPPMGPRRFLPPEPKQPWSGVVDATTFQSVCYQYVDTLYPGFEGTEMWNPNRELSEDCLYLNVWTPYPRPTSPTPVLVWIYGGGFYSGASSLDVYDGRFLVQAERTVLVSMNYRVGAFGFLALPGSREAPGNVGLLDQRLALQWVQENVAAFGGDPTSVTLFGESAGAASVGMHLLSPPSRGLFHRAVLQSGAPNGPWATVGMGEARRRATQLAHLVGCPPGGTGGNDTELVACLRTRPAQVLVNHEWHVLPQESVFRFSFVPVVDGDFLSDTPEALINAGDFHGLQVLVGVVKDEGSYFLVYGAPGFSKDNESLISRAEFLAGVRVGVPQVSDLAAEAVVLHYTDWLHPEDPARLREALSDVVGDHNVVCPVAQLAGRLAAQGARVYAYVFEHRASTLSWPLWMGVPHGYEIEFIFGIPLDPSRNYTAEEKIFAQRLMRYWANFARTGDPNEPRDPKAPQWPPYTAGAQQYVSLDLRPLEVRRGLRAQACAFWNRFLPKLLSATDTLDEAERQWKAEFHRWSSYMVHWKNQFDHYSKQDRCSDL

For `CCC(C)CCCCCCC(=O)c1nc[nH]c1N` (centres undefined), the inhibition [1] was “Active”, the Activity (A498) was “inactive” and the Activity (ACHN) was “inactive”. It also gave an MIC (Bacillus subtilis) of 64 µg/mL (≈ 255 µM).
With `CC(C)CCCCCCC(=O)c1nc[nH]c1N` the inhibition [1] was “Active”, the MIC [2] was 64 µg/mL (≈ 270 µM) and the Activity (A498) was “inactive”. For the same compound, the Activity (ACHN) was “inactive” and the MIC (Bacillus subtilis) was 64 µg/mL (≈ 270 µM).
